A melting point compilation (Tetko et al.; mined from patent text by program, amines drawn as free bases though some values may be those of a salt)

First: Cc1cc2c(cc1-c1cc(C=CC(=O)O)ccc1F)C(C)(C)CCC2(C)C
Second: COc1ccc(-c2cc3cc(OC)cc(C(=O)O)c3o2)cc1
The melting point of the first is lower: 181 to 183 °C for the first, 218 to 220 °C for the second.

First: Cc1nc(N2CCN(Cc3ccc(F)cc3)C2=O)sc1C(=O)NCc1csc(C(C)C)n1
Second: Cc1nc(NC(=O)c2cnn3c(C(F)F)cc(-c4ccc(C(F)(F)F)cc4)nc23)sc1S(=O)(=O)N1CCN(C)CC1
The melting point of the first is lower: 170 to 172 °C for the first, 269 °C for the second.

First: NC(=O)c1cnc2n(c1=O)CCC2
Second: Cc1cc(C)cc(-n2ncc(C(=O)O)c2C(N)=O)c1
The melting point of the first is higher: 293 °C for the first, 223 to 225 °C for the second.

Compared with `COC(=O)CCCCCCCCCCCCCCCCCCCCC(=O)c1c(C)cc(OC)c(OC)c1O`, `CCCCCCCCCCCCCCCCN(CCO)CCCCCCN(CCO)CCCCCCCCCCCCCCCC` is lower in melting point: 72 to 72.5 °C for the first, 29 to 30 °C for the second.

First: Cc1c(C)c2c(c(C)c1C=O)OC(C)(C)C2
Second: Cc1ccc(Oc2c(C)c(NC(=O)CC(C)(C)C)c(C)c3c2OC(C)(C)C3)cc1
The melting point of the first is lower: 93 °C for the first, 182 to 184 °C for the second.

First: CN1C(=O)CCc2c1ccc(Sc1cccc(C3(C)CC(O)CCO3)c1)c2F (configuration not stated)
Second: Cc1ccccc1-c1ccc2c(c1)CC[C@H]1N(C)C(=O)CC[C@]21C
The melting point of the first is higher: 141 to 142 °C for the first, 82 to 87 °C for the second.

First: CCN(CC)CCNC(=O)c1cc(Cl)c(N)cc1OCC(=O)N1CCCC1
Second: CCCOc1cc(C(=O)CCC(=O)O)ccc1OCC
The melting point of the first is higher: 160 to 162 °C for the first, 116 to 117 °C for the second.

Compared with `CCCC[C@]1(CC)CS(=O)(=O)c2cc(O)c(OC)cc2[C@@H](c2ccccc2)N1`, `COc1cc(NC(=O)OCc2ccccc2)c(Cl)cc1-c1n[nH]c(=O)o1` is higher in melting point: 165 to 166 °C for the first, 214 °C for the second.

Compared with `CN(C=O)c1ccc2[nH]cc(CC#N)c2c1`, `COc1ccc(CCCNS(=O)(=O)Cc2ccc3[nH]cc(CC#N)c3c2)cc1` is higher in melting point: 118 to 120 °C for the first, 131 to 133 °C for the second.

First: CCCC1C(C(=O)OCC)C(O)(C(F)(F)F)OC(O)(C(F)(F)F)C1C(=O)OCC (configuration not stated)
Second: CCCOc1cc(CCCOc2c(CC(=O)O)cccc2OC)n(Cc2ccc(C(F)(F)F)cc2)n1
The melting point of the first is higher: 128 to 132 °C for the first, 122 to 123 °C for the second.

First: O=S(=O)(Nc1ccc2c(OCc3ccc(-c4cccc(Cl)c4)cc3)cccc2c1)C(F)(F)F
Second: O=C(N[C@H](Cc1ccc(C(F)(F)F)cc1)[C@@H](O)c1ccc(F)cc1)c1c2ccccc2cc2ccccc12 (racemic)
The melting point of the first is lower: 170 to 171 °C for the first, 251 to 252 °C for the second.

Compared with `CONC(=O)[C@@H](Cc1ccccc1)NC(=O)OC`, `COCCO[C@@H]1c2ccn3c(C)c(C)nc3c2N[C@H](c2ccccc2)[C@H]1OC(=O)OC` is higher in melting point: 154 to 155 °C for the first, 176 to 177 °C for the second.

Compared with `O=C1C(CCO)Oc2ccccc2N1Cc1ccc2ccccc2c1` (configuration not stated), `N=C(Cc1ccccc1)Nc1ncccc1OCc1ccccc1Br` is higher in melting point: 81 to 87 °C for the first, 158 to 169 °C for the second.

First: COc1nc(C)c(C)cc1[N+](=O)[O-]
Second: COC(=O)c1cc2cc(OC)c(OCCCl)cc2nc1N=CN(C)C
The melting point of the first is lower: 71 to 73 °C for the first, 108 to 110 °C for the second.

First: CC1(C)CON(Cc2c(F)cccc2Cl)C1=O
Second: CCOC(=O)Nc1c(Cl)cccc1[Si](C)(C)C
The melting point of the first is lower: 49 to 51 °C for the first, 109 to 110 °C for the second.

Compared with `CS(=O)(=O)c1cccc(Cc2cc3c(F)ccc(-c4cccc(C(=O)NCC(N)=O)c4)c3s2)c1`, `O=C(N[C@H](CO)c1ccccc1)c1[nH]c2ccc(Cl)cc2c1S(=O)(=O)c1ccccc1` is higher in melting point: 107 to 108 °C for the first, 155 to 160 °C for the second.

Compared with `CC[C@@H](c1ccccc1)N(Cc1ccc(C(=O)OC)c(F)c1F)S(=O)(=O)c1ccc(Cl)cc1`, `CS(=O)(=O)Nc1cc(C(c2cc(F)ccc2F)S(=O)(=O)c2ccc(Cl)cc2)c(F)cn1` (configuration not stated) is higher in melting point: 87 to 89 °C for the first, 217 to 219 °C for the second.

Compared with `C=CCOc1ccc(C(=O)c2ccc(Cl)c(S(=O)(=O)N=CN(C)C)c2)c(Cl)c1Cl`, `COc1ccc(C2=NN(CC(=O)c3ccc(Cl)cc3)C(=O)[C@H]3CCCC[C@@H]23)cc1OC` (relative stereo) is higher in melting point: 141 to 142 °C for the first, 142 to 144 °C for the second.

First: CC(C)(C)OC(=O)N1CCN(c2nsc3ccccc23)CC1
Second: CC1(C)CC(=O)Nc2c(CCCN3CCN(c4nsc5ccccc45)CC3)cccc21
The melting point of the first is lower: 105 to 107 °C for the first, 166 °C for the second.

First: CCC(=O)Oc1c(OC)c(OC)c(OC(C)=O)c2ccc(Cl)cc12
Second: COc1c(C)c(C)c(OC)c(Cn2ccnc2)c1C
The melting point of the first is higher: 86 to 87 °C for the first, 82 to 83 °C for the second.

First: OCCC(c1ccccc1)(c1ccccc1)c1ccccc1
Second: O=C(Nc1ccccc1OCc1ccccc1)c1nnnn1Cc1ccccc1
The melting point of the first is lower: 103 to 106 °C for the first, 140 to 142 °C for the second.

First: CNc1nccc(-c2cc(NCCCNCCCOC)c3cc(OC)ccc3c2)n1
Second: CCCCCC(CC(=O)Nc1cc(C(=O)NC(=O)C(C)(C)C)ccc1C(C)(C)C)c1ccc(OC)cc1OC (configuration not stated)
The melting point of the first is lower: 130 to 132 °C for the first, 170 to 172 °C for the second.

First: CSc1cc(Cl)nn2c(-c3ccnc(N)c3)c(-c3ccc(F)c(C)c3)nc12
Second: Oc1ccccc1-c1cc(-c2ccc(F)c(F)c2)cc(-c2ccco2)n1
The melting point of the first is higher: 237 to 238 °C for the first, 147 to 148 °C for the second.

Going from `O=C(O)c1ccc(NC(=O)c2ccc(Cl)cc2)cc1` to `CCOC(=O)c1ccc(-c2cccc(CNC=O)n2)cc1`, the melting point falls from over 260 °C to 120 °C.

Compared with `NC(=O)c1ccc(Br)c(OC(F)F)c1Br`, `Nc1c(Cl)ccc(Br)c1F` is lower in melting point: 186 °C for the first, 61 to 62 °C for the second.

First: COc1cc(OC)c(C2=CCN(C)CC2)c(O)c1C(C)=O
Second: COc1cc2c(cc1Br)-c1c(Cl)c3c(n1CC2)C(=O)N(C(C)(C)C)CCCC3
The melting point of the first is lower: 143 to 144 °C for the first, 203 to 205 °C for the second.

First: Cn1c(C(F)(F)F)cc(=O)n(-c2ccc(Cl)c(S(N)(=O)=O)c2)c1=O
Second: CC(C)(C)C(NC(=O)c1cc(Cl)cc(Cl)c1)Nc1c(Nc2cccnc2)c(=O)c1=O (configuration not stated)
The melting point of the first is lower: 257 to 258 °C for the first, 260 to 262 °C for the second.

First: N#Cc1cc(-c2cc(C(F)F)c3cn[nH]c3n2)ccc1N
Second: N#Cc1cncc(-c2ccc(OCc3ccccc3)cc2)c1Nc1ccc2[nH]ccc2c1
The melting point of the first is higher: 263 °C for the first, 163 to 165 °C for the second.

Compared with `COc1ccc(C2=NN(c3ccccn3)C(=O)[C@H]3CC=CC[C@@H]23)cc1OC` (relative stereo), `COc1ccc2c(c1OC)CN(C=O)CCc1cc(OCc3ccccc3)ccc1CC2` is lower in melting point: 147 to 148 °C for the first, 140 to 141 °C for the second.

Compared with `O=C(O)[C@@H](CC(=O)N1CCOCC1)NS(=O)(=O)c1ccc(Oc2ccccc2)cc1`, `c1ccc(OCCSCc2nnc(-c3ccc(OCCCCN4CCSCC4)cc3)o2)cc1` is lower in melting point: 147 to 149 °C for the first, 58 °C for the second.

First: CCCCn1nc(C(F)(F)CCC)nc1Cc1ccc(-c2ccccc2-c2nnn[nH]2)nc1
Second: Cn1ncnc1COc1nn2c(-c3cnccn3)nnc2cc1-c1ccccc1
The melting point of the first is lower: 135 to 136 °C for the first, 264 °C for the second.

First: Cc1ncc2n1-c1ccc(Cl)cc1C(c1ccccc1F)=NC2O (configuration not stated)
Second: Nc1ncnc2c1ncn2Cc1nc2cccc(Cl)c2c(=O)n1-c1ccccc1F
The melting point of the first is lower: 185 to 186 °C for the first, 296 °C for the second.

Compared with `O=C(O)c1cn(C2CC2)c2c(F)c(N3CCC[C@H]3CO)c(F)cc2c1=O`, `CC(C)(CO)NC(=O)c1nn(-c2ccc(F)cc2F)c2c1C1CCC2CC1` is lower in melting point: 209 to 210 °C for the first, 128 to 131 °C for the second.

First: CC(C)CC(C=O)NC(=O)C(Cc1c[nH]cn1)NC(=O)C(CC=Cc1ccccc1)Cc1cccc2ccccc12 (configuration not stated)
Second: CCc1nc2cc(/C=C/C(=O)NO)ccc2c(=O)n1CCc1ccccc1
The melting point of the first is lower: 92 to 96 °C for the first, 209 to 211 °C for the second.

First: CCCCCCCC1=CC(=O)NC1(O)CN (configuration not stated)
Second: CCCCCCCC(O)C1(C)OC(C)=C(O)C1=O (configuration not stated)
The melting point of the first is higher: 176 °C for the first, 97 to 98 °C for the second.

Compared with `COC(=O)c1ccc(C)c(-n2c(C)cc(OCc3ccc(F)cc3CNC(=O)Nc3cc(C(C)(C)C)nn3-c3ccc(O)c(Cl)c3)c(Cl)c2=O)c1`, `C=Cc1cc(C(C)NC(=O)Nc2ccc(C(C)(C)C)cc2)ccc1NS(=O)(=O)C=C` (configuration not stated) is lower in melting point: 197 to 200 °C for the first, 60 to 62 °C for the second.

Compared with `O=C(CNC(=O)[C@@H]1CCCN1)Nc1ccc([N+](=O)[O-])cc1C(=O)c1ccccc1`, `CC1Cn2c(=O)[nH]c3cccc(c32)CN1Cc1ccccc1` (configuration not stated) is higher in melting point: 165 to 167 °C for the first, 205 °C for the second.

Compared with `CCC(C)Nc1nc(-c2cc(OC)c(OC)c(OC)c2)nc2sc(C#N)c(C)c12` (configuration not stated), `COc1cc(Cc2cnc(N)nc2N)cc(-c2ccc(O)cc2)c1OC` is higher in melting point: 91 to 93 °C for the first, 233 °C for the second.

First: CC(c1cc(C#N)ncn1)C(O)(Cn1cncn1)c1ccc(F)cc1F (configuration not stated)
Second: CC(C)(C)C(=O)C(=Cc1ccc(Cl)cc1)n1cncn1
The melting point of the first is higher: 148 to 149 °C for the first, 82 °C for the second.

Compared with `CC(C)(C)OC(=O)N1CCC(c2ccc(COc3ccc(-c4nc[nH]n4)cc3)nc2)CC1`, `CCOCc1nc2c(N)nc3cc(OCc4csc(C)n4)ccc3c2n1CC(C)(C)O` is higher in melting point: 147 to 150 °C for the first, 200 to 201 °C for the second.

First: O=C1C=C(OCCCCCCO)c2ccccc2C1=O
Second: ClCCN(CCCl)CCOc1cccc2c(Cl)c3ccccc3nc12
The melting point of the first is lower: 96 to 98 °C for the first, 105 to 106 °C for the second.

First: N#Cc1cnn2c1N(C(=O)CN1CCN(Cc3ccccc3C(F)(F)F)CC1)CC=C2c1cccc(C(F)(F)F)c1
Second: c1ccc(C(=C2CCN(CCN3CCNCC3)CC2)c2ccccc2)cc1
The melting point of the first is higher: 169 to 171 °C for the first, 73 to 75 °C for the second.

Compared with `CC1Cc2c(NN)c(Cl)cc(Cl)c2O1` (configuration not stated), `CC(=O)OCc1nc(C(C)C)c(Sc2cc(Cl)cc(Cl)c2)n1C` is higher in melting point: 59 to 64 °C for the first, 92 to 93 °C for the second.

First: c1ccc(Nn2ccc3ccccc32)nc1
Second: Nc1cccc(Cc2n[nH]c(=O)c3ccccc23)c1
The melting point of the first is lower: 109 to 110 °C for the first, 175 to 177 °C for the second.

First: CCCNC(=O)N1C2=NC(C)(C)N(C)C(=O)N2c2ccccc21
Second: CCOC(=O)Nc1ccc2sc(C)cc(=O)c2c1
The melting point of the first is lower: 85 to 87 °C for the first, 219 to 220 °C for the second.

Compared with `CCCCCc1ncc([C@H]2CC[C@H](CCC)CC2)cn1`, `COc1ccc(Cc2cnc(NCCSCc3nccs3)[nH]c2=O)cn1` is higher in melting point: 33 °C for the first, 95 to 97 °C for the second.

Compared with `Cc1cn2c(C)nc3c(C)nn(C)c3c2n1`, `CC(O)Cn1cnc2c(=O)[nH]cnc21` (configuration not stated) is higher in melting point: 198 to 200 °C for the first, 244 to 250 °C for the second.

Compared with `CC(=O)Nc1ccc(S(=O)(=O)NC(C)(C)C)cc1`, `CC(C)NS(=O)(=O)Oc1ccc(F)cc1` is lower in melting point: 200 to 201 °C for the first, 145 to 146 °C for the second.

`O=C(NCCCCCCOC(=O)N1CCC2(CCCC2)CC1)OC1CCN(C(=O)Oc2cccc(Oc3ccccc3)c2)CC1` showed a melting point of 72 to 120 °C.
